# Source: patent publication US9920074B2 (ACEA BIOSCIENCES INC., priority 2013, dated 2018)
# pIC50: −log10 of the molar value.
# Key:
# [1] = biological target: T1, Btk (Tyr223) phosphorylation in Ramos cells (Homo sapiens, UniProt Q06187); assay: Western blotting assay for Btk (Example 73); format: cell-based; settings: 45 min, 6 μg/mL anti-IgM, read-out: Btk Inhibition
# T1 construct: endogenous in cells; host or cells: Ramos cells (ATCC)
# Procedure: (§1) All cell lines were obtained from the American Type Culture Collection and were maintained at 37° C. with 5% CO2. Ramos cell line was maintained in media supplemented with 10% fetal bovine serum, penicillin (100 units/mL) and streptomycin (100 μg/mL). NK-92 cell line was maintained in media supplemented with 10% fetal bovine serum and 10% horse serum, penicillin (100 units/mL) and streptomycin (100 μg/mL), IL-2 10 ng/mL. Goat F(ab′)2 Anti-Human IgM-UNLB was obtained from SouthernBiotech. IL-2 was obtained from Peprotech.
# Ramos cells were treated with compounds at indicated doses for 45 min at room temperature, followed by stimulation of 6 μg/mL of anti-IgM for 30 min, and then lysed. Western blots were performed on the cell lysate using Phospho-Btk (Tyr223), Phospho-Btk (Tyr551), Btk, Phospho-PLCγ2 (Tyr1217), PLCγ2, Phospho-p44/42 MAPK (Erk1/2) (Thr202/Tyr204) and p44/42 MAPK (Erk1/2) antibodies (Cell Signaling Technology). The density of blotting band was acquired using ImageJ software, and the IC50 of Btk (Tyr223) phosphorylation was fitted using a non-linear regression model by GraphPad Prism.
# [2] = test system: Stat5 phosphorylation in NK-92 cells; assay: Western blotting assay for Stat5; format: cell-based; settings: NK92, 1 hour, IL-2 stimulation, read-out: Stat5 inhibition
# Procedure: as §1
# NK-92 cells were treated with compounds at the dosed indicated for 1 hour in incubator, followed by the IL-2 stimulation for 15 minutes. Cells were then collected and lysed to prepare the cellular extraction. Western blots were performed on cell lysate using Phospho-Jak3, Jak3, Phospho-Stat5, Stat5 antibodies (Cell Signaling Technology). The intensity of blotting band was acquired using Image Lab (Bio-Rad) software, and the IC50 of target was generated with GraphPad Prism.
# T1 sequence (Q06187 whole entry): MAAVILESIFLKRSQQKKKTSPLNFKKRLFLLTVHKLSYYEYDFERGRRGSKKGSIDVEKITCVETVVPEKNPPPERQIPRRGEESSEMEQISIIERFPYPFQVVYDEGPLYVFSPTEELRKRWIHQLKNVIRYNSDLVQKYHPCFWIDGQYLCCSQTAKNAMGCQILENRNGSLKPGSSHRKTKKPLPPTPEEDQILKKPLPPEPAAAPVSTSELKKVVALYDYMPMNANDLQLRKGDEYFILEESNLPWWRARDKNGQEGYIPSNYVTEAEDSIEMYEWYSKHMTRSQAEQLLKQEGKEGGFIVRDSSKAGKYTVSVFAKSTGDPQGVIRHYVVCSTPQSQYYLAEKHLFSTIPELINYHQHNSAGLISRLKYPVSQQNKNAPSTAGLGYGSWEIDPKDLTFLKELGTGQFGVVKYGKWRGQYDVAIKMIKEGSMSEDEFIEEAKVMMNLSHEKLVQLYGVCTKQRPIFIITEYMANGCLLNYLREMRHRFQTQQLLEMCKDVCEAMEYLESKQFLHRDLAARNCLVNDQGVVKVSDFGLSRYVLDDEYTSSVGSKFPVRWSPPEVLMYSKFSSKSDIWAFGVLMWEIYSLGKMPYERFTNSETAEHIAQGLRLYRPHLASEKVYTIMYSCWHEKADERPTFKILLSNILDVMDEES
pIC50 [1],pIC50 [2],SMILES
≥ 8.00,,"C=CC(=O)Nc1cccc(Oc2nc(Nc3ccc(N[C@H]4CCN(S(C)(=O)=O)C4)cc3)nc3[nH]ccc23)c1 [Compound I-62a, (S)—N-(3-(2-(4-(1-(methylsulfonyl)pyrrolidin-3-ylamino)phenylamino)-7H-pyrrolo[2,3-d]pyrimidin-4-yloxy)phenyl)acrylamide]"
≥ 8.00,,"C=CC(=O)Nc1cccc(Oc2nc(Nc3ccc(N(C)[C@H]4CCN(S(C)(=O)=O)C4)cc3)nc3[nH]ccc23)c1 [Compound I-63a, (S)—N-(3-(2-(4-(methyl(1-(methylsulfonyl)pyrrolidin-3-yl)amino)phenylamino)-7H-pyrrolo[2,3-d]pyrimidin-4-yloxy)phenyl)acrylamide]"
≥ 8.00,,"C=CC(=O)Nc1cccc(Oc2nc(Nc3ccc(N(C)[C@H]4CCN(C(C)=O)C4)cc3)nc3[nH]ccc23)c1 [Compound I-64a, (S)—N-(3-(2-(4-((1-acetylpyrrolidin-3-yl)(methyl)amino)phenylamino)-7H-pyrrolo[2,3-d]pyrimidin-4-yloxy)phenyl)acrylamide]"
≥ 8.00,,"C=CC(=O)Nc1cccc(Oc2nc(Nc3ccc(N4CCN(CCOC)CC4)cc3)nc3[nH]cnc23)c1 [Compound I-65a, N-(3-(2-(4-(4-(2-methoxyethyl)piperazin-1-yl)phenylamino)-9H-purin-6-yloxy)phenyl)acrylamide]"
≥ 8.00,,"C=CC(=O)Nc1cccc(Oc2nc(Nc3ccc(N[C@H]4CCN(C(C)=O)C4)cc3)ncc2OC)c1 [Compound I-66a, (S)—N-(3-(2-(4-((1-acetylpyrrolidin-3-yl)amino)phenylamino)-5-methoxypyrimidin-4-yloxy)phenyl)acrylamide]"
7.00 to 8.00,,"C=CC(=O)Nc1cccc(Oc2nc(Nc3ccc(N[C@H]4CCN(CCOC)C4)cc3)nc3[nH]cnc23)c1 [Compound I-67a, (S)—N-(3-(2-(4-(1-(2-methoxyethyl)pyrrolidin-3-ylamino)phenylamino)-9H-purin-6-yloxy)phenyl)acrylamide]"
7.00 to 8.00,,"C=CC(=O)Nc1cccc(Oc2nc(Nc3ccc(N4CCN(C(C)=O)CC4)cc3)nc3[nH]cnc23)c1 [Compound I-68a, N-(3-(2-(4-(4-acetylpiperazin-1-yl)phenylamino)-9H-purin-6-yloxy)phenyl)acrylamide]"
7.00 to 8.00,,"C=CC(=O)Nc1cccc(Oc2nc(Nc3ccc(N4CCN(CCS(C)(=O)=O)CC4)cc3)nc3[nH]cnc23)c1 [Compound I-69a, N-(3-(2-(4-(4-(2-(methylsulfonyl)ethyl)piperazin-1-yl)phenylamino)-9H-purin-6-yloxy)phenyl)acrylamide]"
7.00 to 8.00,,"C=CC(=O)Nc1cccc(Oc2nc(Nc3ccc4c(c3)CS(=O)(=O)N4)ncc2OC)c1 [Compound I-70a, N-(3-((2-((2,2-dioxido-1,3-dihydrobenzo[c]isothiazol-5-yl)amino)-5-methoxypyrimidin-4-yl)oxy)phenyl)acrylamide]"
≥ 8.00,,"C=CC(=O)Nc1cccc(Oc2nc(Nc3ccc(N(C)[C@H]4CCN(S(C)(=O)=O)C4)cc3)nc3[nH]cnc23)c1 [Compound I-71a, (S)—N-(3-(2-(4-(methyl(1-(methylsulfonyl)pyrrolidin-3-yl)amino)phenylamino)-9H-purin-6-yloxy)phenyl)acrylamide]"
≥ 8.00,,"C=CC(=O)Nc1cccc(Oc2nc(Nc3ccc(N(C)[C@@H]4CCN(C(C)=O)C4)cc3)ncc2OC)c1 [Compound I-72a, (R)—N-(3-(2-(4-((1-acetylpyrrolidin-3-yl)(methyl)amino)phenylamino)-5-methoxypyrimidin-4-yloxy)phenyl)acrylamide]"

# The next lines start with the compound.
SMILES,pIC50 [1],pIC50 [2]
"C=CC(=O)Nc1cccc(Oc2nc(Nc3ccc(N[C@@H]4CCN(CCF)C4)cc3)ncc2F)c1 [Compound I-19, (R)—N-(3-(5-fluoro-2-(4-(1-(2-fluoroethyl)pyrrolidin-3-ylamino)phenylamino)pyrimidin-4-yloxy)phenyl)acrylamide]",≥ 8.00,
"C=CC(=O)Nc1cccc(Oc2nc(Nc3ccc(N4CCN(C)CC4)c(F)c3)ncc2O)c1 [Compound I-23a, N-(3-(2-(3-fluoro-4-(4-methylpiperazin-1-yl)phenylamino)-5-hydroxypyrimidin-4-yloxy)phenyl)acrylamide]",7.00 to 8.00,≤ 6.40
"C=CC(=O)Nc1cccc(Oc2nc(Nc3ccc(OCCOC)c(F)c3)nc3[nH]ccc23)c1 [Compound I-24a, N-(3-(2-(3-fluoro-4-(2-methoxyethoxy)phenylamino)-7H-pyrrolo[2,3-d]pyrimidin-4-yloxy)phenyl)acrylamide]",7.00 to 8.00,
"C=CC(=O)Nc1cccc(Oc2nc(Nc3ccc(N(C)[C@H]4CCN(CCF)C4)cc3)nc3[nH]ccc23)c1 [Compound I-26a, (S)—N-(3-(2-(4-((1-(2-fluoroethyl)pyrrolidin-3-yl)(methyl)amino)phenylamino)-7H-pyrrolo[2,3-d]pyrimidin-4-yloxy)phenyl)acrylamide]",7.00 to 8.00,
"C=CC(=O)Nc1cccc(Oc2nc(Nc3ccc(N[C@H]4CCN(CCF)C4)cc3)nc3[nH]ccc23)c1 [Compound I-27a, (S)—N-(3-(2-(4-(1-(2-fluoroethyl)pyrrolidin-3-ylamino)phenylamino)-7H-pyrrolo[2,3-d]pyrimidin-4-yloxy)phenyl)acrylamide]",≥ 8.00,
"C=CC(=O)Nc1cccc(Oc2nc(Nc3cccc4c3CCN4CCOC)ncc2OC)c1 [Compound I-28a, N-(3-(5-methoxy-2-(1-(2-methoxyethyl)indolin-4-ylamino)pyrimidin-4-yloxy)phenyl)acrylamide]",7.00 to 8.00,
"C=CC(=O)Nc1cccc(Nc2nc(Nc3cccc4c3CCN4CCOC)ncc2OC)c1 [Compound I-29a, N-(3-(5-methoxy-2-(1-(2-methoxyethyl)indolin-4-ylamino)pyrimidin-4-ylamino)phenyl)acrylamide]",≤ 7.00,
"C=CC(=O)Nc1cccc(Oc2nc(Nc3ccc(N[C@H]4CCN(CCOC)C4)cc3)ncc2OC)c1 [Compound I-30a, (S)—N-(3-(5-methoxy-2-(4-(1-(2-methoxyethyl)pyrrolidin-3-ylamino)phenylamino)pyrimidin-4-yloxy)phenyl)acrylamide]",≥ 8.00,≥ 6.70
"C=CC(=O)Nc1cccc(Nc2nc(Nc3ccc(N[C@H]4CCN(CCOC)C4)cc3)ncc2OC)c1 [Compound I-31a, (S)—N-(3-(5-methoxy-2-(4-(1-(2-methoxyethyl)pyrrolidin-3-ylamino)phenylamino)pyrimidin-4-ylamino)phenyl)acrylamide]",≥ 8.00,≤ 6.40
"C=CC(=O)Nc1cccc(Oc2nc(Nc3ccc(NCCOC)cc3)ncc2OC)c1 [Compound I-32a, N-(3-(5-methoxy-2-(4-(2-methoxyethylamino)phenylamino)pyrimidin-4-yloxy)phenyl)acrylamide]",≥ 8.00,≤ 6.40
"C=CC(=O)Nc1cccc(Oc2nc(Nc3ccc(N(C)CCOC)nc3)ncc2OC)c1 [Compound I-33a, N-(3-(5-methoxy-2-(6-((2-methoxyethyl)(methyl)amino)pyridin-3-ylamino)pyrimidin-4-yloxy)phenyl)acrylamide]",7.00 to 8.00,≤ 6.40
"C=CC(=O)Nc1cccc(Oc2nc(Nc3ccc4c(c3)CCN4CCOC)ncc2OC)c1 [Compound I-34a, N-(3-(5-methoxy-2-(1-(2-methoxyethyl)indolin-5-ylamino)pyrimidin-4-yloxy)phenyl)acrylamide]",≥ 8.00,≤ 6.40
"C=CC(=O)Nc1cccc(Oc2nc(Nc3ccc(N(C)CCOC)cc3)ncc2OC)c1 [Compound I-35a, N-(3-(5-methoxy-2-(4-((2-methoxyethyl)(methyl)amino)phenylamino)pyrimidin-4-yloxy)phenyl)acrylamide]",≥ 8.00,6.40 to 6.70
"C=CC(=O)Nc1cccc(Oc2nc(Nc3ccc(N(C)[C@H]4CCN(CCOC)C4)cc3OC)ncc2OC)c1 [Compound I-55a, (S)—N-(3-(5-methoxy-2-(2-methoxy-4-((1-(2-methoxyethyl)pyrrolidin-3-yl)(methyl)amino)phenylamino)pyrimidin-4-yloxy)phenyl)acrylamide]",≤ 7.00,
"C=CC(=O)Nc1cccc(Oc2nc(Nc3ccc4c(c3)CCN4S(C)(=O)=O)ncc2OC)c1 [Compound I-59a, N-(3-(5-methoxy-2-(1-(methylsulfonyl)indolin-5-ylamino)pyrimidin-4-yloxy)phenyl)acrylamide]",≥ 8.00,
"C=CC(=O)Nc1cccc(Oc2nc(Nc3ccc(N(C)[C@H]4CCN(S(C)(=O)=O)C4)cc3)ncc2OC)c1 [Compound I-60a, (S)—N-(3-(5-methoxy-2-(4-(methyl(1-(methylsulfonyl)pyrrolidin-3-yl)amino)phenylamino)pyrimidin-4-yloxy)phenyl)acrylamide]",≥ 8.00,
"C=CC(=O)Nc1cccc(Oc2nc(Nc3ccc(N[C@H]4CCN(C(C)=O)C4)cc3)nc3[nH]ccc23)c1 [Compound I-61a, (S)—N-(3-(2-(4-(1-acetylpyrrolidin-3-ylamino)phenylamino)-7H-pyrrolo[2,3-d]pyrimidin-4-yloxy)phenyl)acrylamide]",≥ 8.00,
